The supplement of paper PMC10307832

Columns and labels:
AZD1208 + Foretinib = compound: N[C@@H]1CCCN(c2c(/C=C3\SC(=O)NC3=O)cccc2-c2ccccc2)C1 [AZD1208] + COc1cc2c(Oc3ccc(NC(=O)C4(C(=O)Nc5ccc(F)cc5)CC4)cc3F)ccnc2cc1OCCCN1CCOCC1 [Foretinib] (partner 0.25 µM); test: relative viability (nuclei count vs DMSO), 5 days (fraction); higher = more cells survive
How it was run: (§1)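 The day after seeding in 1536-well plates, lung cancer cell lines were treated by pin tool with a single drug, or with a fixed anchor-drug dose together with five library-drug doses (not always all listed) in √10 steps. After 5 days, a combined fix-and-stain solution (final 0.05% Triton X-100, 1% formaldehyde, 1 ug/ml Hoechst) was added. Nuclei counted on 4× images gave relative viability as treated counts over vehicle counts, reported as the median of duplicate plates.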

XMD14-99 + Navitoclax = compound: CN1CCN(CC1)C2=CC(=C(C=C2)NC3=NC(=C(S3)C(=O)C4=C(C=CC=C4Cl)Cl)N)OC [XMD14-99] + CC1(C)CCC(c2ccc(Cl)cc2)=C(CN2CCN(c3ccc(C(=O)NS(=O)(=O)c4ccc(N[C@H](CCN5CCOCC5)CSc5ccccc5)c(S(=O)(=O)C(F)(F)F)c4)cc3)CC2)C1 [Navitoclax] (partner 0.5 µM); test: as above
How it was run: as §1

Cell Line | relative viability (AZD1208 + Foretinib; first compound 0.08 µM) | relative viability (AZD1208 + Foretinib; first compound 0.253 µM) | relative viability (AZD1208 + Foretinib; first compound 0.8 µM) | relative viability (AZD1208 + Foretinib; first compound 2.53 µM) | relative viability (AZD1208 + Foretinib; first compound 8 µM) | relative viability (XMD14-99 + Navitoclax; first compound 0.08 µM) | relative viability (XMD14-99 + Navitoclax; first compound 0.8 µM) | relative viability (XMD14-99 + Navitoclax; first compound 2.53 µM) | relative viability (XMD14-99 + Navitoclax; first compound 8 µM)
NCI-H2342 | 0.922 | 0.946 | 0.934 | 1.02 | 0.801 | – | – | – | –
SK-MES-1 | 0.84 | 0.949 | 0.817 | 0.769 | 0.661 | 1.26 | 1.18 | 1.05 | 0.821
NCI-H1993 | 0.763 | 0.664 | 0.581 | 0.71 | 0.713 | 0.978 | 0.922 | 0.796 | 0.694
HCC-366 | 0.903 | 0.985 | 0.843 | 0.949 | 0.899 | 1.01 | 1.03 | 0.986 | 0.863
201T | 1.06 | 1.12 | 1.07 | 1.06 | 1 | 1.18 | 1.17 | 1.11 | 1.15
HCC-827 | 1.14 | 1.1 | 1.05 | 1 | 1.03 | 1.06 | 0.99 | 0.793 | 0.873
NCI-H650 | 1.03 | 1.03 | 0.977 | 0.9 | 0.829 | – | – | – | –
NCI-H2085 | 0.965 | 0.97 | 1.23 | 0.886 | 0.748 | 1.11 | 1.1 | 1.1 | 0.823
NCI-H596 | 0.882 | 0.912 | 0.806 | 0.865 | 0.673 | 1.03 | 0.956 | 0.702 | 0.88
SK-LU-1 | 0.794 | 0.917 | 0.8 | 0.721 | 0.661 | 0.796 | 1.02 | 0.886 | 0.405
A-427 | 0.924 | 1.01 | 0.905 | 0.865 | 0.813 | 0.894 | 0.954 | 0.779 | 0.807
NCI-H460 | 0.992 | 1.09 | 0.978 | 0.987 | 1.11 | 1.06 | 1.02 | 1.03 | 0.767
NCI-H1703 | 0.268 | 0.333 | 0.275 | 0.301 | 0.335 | 1.06 | 1.11 | 0.933 | 0.719
NCI-H1792 | – | – | – | – | – | 0.747 | 0.638 | 0.561 | 0.41
Calu-6 | 0.861 | 0.938 | 0.946 | 0.867 | 0.747 | 0.772 | 0.802 | 0.726 | 0.473
SW 1573 | 0.709 | 0.872 | 0.837 | 0.573 | 0.653 | 0.961 | 1.15 | 1.05 | 0.765
RERF-LC-KJ | 0.865 | 0.859 | 0.682 | 0.7 | 0.546 | 1.01 | 0.829 | 0.926 | 0.607
EMC-BAC-2 | 1.01 | 1.04 | 1 | 1.02 | 0.727 | 1.08 | 1.14 | 1.06 | 0.901
LK-2 | 0.935 | 0.707 | 0.821 | 0.574 | 0.421 | 0.767 | 0.883 | 1.02 | 0.91

Cell Line | relative viability (AZD1208 + Foretinib; first compound 0.08 µM) | relative viability (AZD1208 + Foretinib; first compound 0.253 µM) | relative viability (AZD1208 + Foretinib; first compound 0.8 µM) | relative viability (AZD1208 + Foretinib; first compound 2.53 µM) | relative viability (AZD1208 + Foretinib; first compound 8 µM) | relative viability (XMD14-99 + Navitoclax; first compound 0.08 µM) | relative viability (XMD14-99 + Navitoclax; first compound 0.8 µM) | relative viability (XMD14-99 + Navitoclax; first compound 2.53 µM) | relative viability (XMD14-99 + Navitoclax; first compound 8 µM)
NCI-H2228 | 0.78 | 0.809 | 0.635 | 0.842 | 0.761 | 1.05 | 0.933 | 0.918 | 0.364
NCI-H322M | 0.925 | 0.873 | 0.869 | 0.966 | 0.996 | 1.15 | 1.27 | 1.33 | 1.08
NCI-H1975 | 1.06 | 0.959 | 0.855 | 0.853 | 0.972 | 1.05 | 1.07 | 1.14 | 1.08
NCI-H1944 | 0.829 | 0.838 | 0.774 | 0.688 | 0.571 | 1.1 | 1.04 | 1.01 | 0.919
LU99A | 0.707 | 0.882 | 0.782 | 0.82 | 0.611 | 0.766 | 0.776 | 0.786 | 0.725
NCI-H2405 | 1.03 | 1 | 0.991 | 1.06 | 0.993 | 0.825 | 1.05 | 0.877 | 0.436
NCI-H2023 | 0.811 | 0.462 | 0.795 | 0.805 | 0.634 | 0.985 | 0.959 | 0.953 | 0.849
HCC-15 | 0.956 | 0.994 | 0.876 | 0.88 | 0.855 | 0.663 | 0.617 | 0.609 | 0.494
HCC-44 | – | – | – | – | – | 1.07 | 0.888 | 0.935 | 0.9
COR-L23 | 0.961 | 1.05 | 0.966 | 0.94 | 0.97 | 0.951 | 0.894 | 0.746 | 0.538
HCC-78 | 0.549 | 0.499 | 0.512 | 0.526 | 0.625 | 0.657 | 0.729 | 0.794 | 0.622
NCI-H1299 | 1.11 | 1.08 | 1.08 | 1.14 | 1.07 | 1.08 | 1.03 | 0.994 | 0.825
NCI-H838 | 1.03 | 1 | 0.939 | 1.02 | 0.946 | 1.15 | 1.11 | 1.1 | 0.747
NCI-H2126 | 1.19 | 0.834 | 0.766 | 1.09 | 0.931 | 0.844 | 0.797 | 0.879 | 0.793
BEN | 0.609 | 0.602 | 0.47 | 0.571 | 0.459 | 0.0784 | 0.0577 | 0.0776 | 0.0694
LCLC-103H | 0.771 | 0.665 | 0.56 | 0.558 | 0.485 | – | – | – | –
EKVX | 0.798 | 0.744 | 0.876 | 0.858 | 0.913 | 0.96 | 0.982 | 0.841 | 0.66
LXF-289 | 0.978 | 1.03 | 0.996 | 0.962 | 1.03 | 0.903 | 0.913 | 0.884 | 0.836
ABC-1 | 1.16 | 1.02 | 1.13 | 0.92 | 0.967 | – | – | – | –
